# Patent US20230057984A1, “NORMALIZATION OF CULTURE OF CORNEAL ENDOTHELIAL CELLS” (KYOTO PREFECTURAL PUBLIC UNIVERSITY CORPORATION, priority 2011, published 2023)
# Where two headings read alike, the source gives them in different places.
# B1: BMP-7: bone morphogenic protein 7, anti-EMT factor, R&D SYSTEMS catalog number 354-BP (protein, UniProt P18075 293-431, looked up)
# Bone morphogenetic protein 7: STGSKQRSQNRSKTPKNQEALRMANVAENSSSDQRQACKKHELYVSFRDLGWQDWIIAPEGYAAYYCEGECAFPLNSYMNATNHAIVQTLVHFINPETVPKPCCAPTQLNAISVLYFDDSSNVILKKYRNMVVRACGCH
# Assays:
# [1] = tested on: corneal endothelial failure model (bullous keratopathy model); assay: Transplantation of cultured human corneal endothelial cells to cynomolgus monkey bullous keratopathy model (Example 9); format: in vivo
# Text: Under general anesthesia, the peripheral portion of a cornea of a cynomolgus monkey is cut by 1.5 mm, and a silicon surgical instrument is inserted into an anterior chamber to mechanically currete a corneal endothelial cell, thus creating a bullous keratopathy model. Next, of human corneal endothelial cells cultured by the method according to the present invention ex vivo, 2.0×10^5 were suspended in a basal culture medium, and a ROCK inhibitor having an adhesion promoting effect, Y-27632, was added thereto such that the final concentration would be 100 μmol/l, followed by introduction into the anterior chamber. As a control, 2.0×10^5 human corneal endothelial cells, suspended in a basal culture medium, were introduced without a ROCK inhibitor. After introduction, the model was maintained with its head down for three hours so that the eyeball would be downwards, thus promoting cellular adhesion to the corneal endothelium surface. Therapeutic effects of bullous keratopathy by transplanting a cultured corneal endothelium sheet was evaluated by corneal transparency evaluation through a slit-lamp microscope, and corneal thickness measurement using a ultrasonic tachymeter (FIG. 14). […] Then, similar to Example 2, immunostaining was performed directed to phalloidin, Na^+/K^+-ATPase and ZO-1, followed by taking images using a fluorescence microscope (FIG. 15). […]
# [2] = tested on: Human corneal endothelial cells; assay: Culture of human corneal endothelial cells with SB203580 in conjunction with SB431542 (Example 7); format: cell-based; conditions: HCEC
# Description: Corneal endothelial cells were mechanically exfoliated together with basement membranes from research corneas purchased from the Seattle bank, followed by exfoliating from the basement membranes using collagenase for collection, and then primary culturing. […] In addition, culturing was performed using a base culture medium with SB431542 (1 μmol/l, TOCRIS, catalog number:1614) added thereto, with SB203580 (1 μmol/l, CALBIOCHEM, catalog number: 559389) added thereto, and with SB431542 (1 μmol/l) and SB203580 (1 μmol/l) added thereto.
# [3] = tested on: Human corneal endothelial cells; conditions: HCEC after subculturing
# Description: Next, subculturing was performed with trypsin. Comparison was made between cells cultured in Opti-MEM I Reduced-Serum Medium, Liquid (INVITROGEN catalog number: 31985-070)+8% fetal bovine serum (FBS) (BIOWEST, catalog number: S1820-500)+[…] CaCl2.2H2O (SIGMA catalog number: C7902-500G)+0.08% chondroitin sulfuric acid (SIGMA catalog number: C9819-5G)+20 μg ascorbic acid (SIGMA catalog number: A4544-25G)+50 μg/ml gentamicin (INVITROGEN catalog number: 15710-064)+5 ng/ml EGF (INVITROGEN catalog number: PHG0311) as a normal culture medium, and cells cultured in the above-mentioned culture medium with Smad3 inhibitor (0.3 mM and 3 mM) added thereto.
# [4] = tested on: monkey corneal endothelial cells; assay: Addition of TGF-β to monkey corneal endothelial cells: cell form and immunostaining (Example 4); format: cell-based, cynomolgus monkey
# [5] = tested on: monkey corneal endothelial cells; assay: Addition of TGF-β to monkey corneal endothelial cells: Western blot of Na+/K+-ATPase and ZO-1 (Example 4); format: cell-based, cynomolgus monkey; conditions: monkey CEC, TGF-β 0, 1, 3, 10, 30 ng/ml, concentration dependent
# [6] = tested on: Smad2; assay: Addition of TGF-β to monkey corneal endothelial cells: Western blot of pSmad2/Smad2 (Example 4); format: cell-based, cynomolgus monkey; conditions: monkey CEC, TGF-β 0, 1, 10 ng/ml
# [7] = tested on: Human corneal endothelial cells; assay: Culture of human corneal endothelial cells with BMP-7: phase-contrast and phalloidin staining (Example 6); format: cell-based
# Description: (§1) Next, by using three different concentrations, BMP7 was able to suppress the change in a HCEC to a fibroblast phenotype and to maintain the function thereof. […] Thus, this molecule is used to antagonize an EMT process [Zeisberg M, et al. (2003) Nat Med 9: 964-968], [Simic P, et al. (2007) EMBO Rep 8: 327-331], [Buijs J T, et al. (2007) Am J Pathol 171: 1047-1057], [Zeisberg M, et al. (2007) J Biol Chem 282: 23337-23347]. […] Fibroblast-like HCEC was treated with BMP-7 in the concentration ranging from 10 to 1,000 ng/ml.
# [8] = tested on: Human corneal endothelial cells; assay: Na+/K+-ATPase and ZO-1 staining of human corneal endothelial cells treated with BMP-7 (FIG. 10A C-F); format: cell-based
# Description: For tissue staining examination, cultured MCECs or HCECs were put into Lab-Tek™ Chamber Slides™ (NUNC A/S, Roskilde, Denmark), fixed with 4% formaldehyde for 10 minutes at a room temperature (RT), and incubated for 30 minutes with 1% bovine serum albumin (BSA). Specifically, cultured MCECs or HCECs on the Lab-Tek™ Chamber Slides™ (NUNCA/S, Roskilde, Denmark) were fixed at a room temperature for 10 minutes in 4% formaldehyde, followed by incubation for 30 minutes together with 1% bovine serum albumin (BSA). In order to examine the phenotype of CEC, immunohistochemical analysis was directed to a protein associated with tight junction, ZO-1 (Zymed Laboratories, Inc., South San Francisco, Calif.), a protein associated with the pumping function, Na^+/K^+-ATPase (Upstate Biotec, Inc., Lake Placid, N.Y.), fibronectin (BD, Franklin Lakes, N.J.), and actine. As markers associated with the function of CEC, ZO-1 and Na^+/K^+-ATPase were used; fibronectin and type 1 collagen were used to evaluate the change in a fibroblastic manner; and staining of actine was used to evaluate the phenotype of the cells. Staining of ZO-1, Na^+/K^+-ATPase, type 1 collagen and fibronectin was each performed using 1:200 dilution of ZO-1 polyclonal antibody, Na^+/K^+-ATPase monoclonal antibody, and fibronectin monoclonal antibody. As to secondary antibody, 1:2000 dilution of Alexa Fluor (registered trademark) 488 label or Alexa Fluor (registered trademark) 594 label goat antimouse IgG (Life Technologies) was used. Staining of actine was performed using 1:400 dilution of Alexa Fluor (registered trademark) 488 label phalloidin (Life Technologies). Next, the nucleus of each cell was stained with DAPI (Vector Laboratories, Inc., Burlingame, Calif.) or PI (Sigma-Aldrich). Next, the slides were observed through a fluorescence microscope (TCS SP2 AOBS; Leica Microsystems, Welzlar, Germany).
# as §1
# [9] = tested on: HCEC
# [10] = fibroblast-like HCEC, BMP-7 10 to 1,000 ng/ml
# [11] = HCEC, three concentrations of BMP-7 vs additive-free control
molecule,measurement,setting,value
"C[C@@H](N)[C@H]1CC[C@H](C(=O)Nc2ccncc2)CC1.Cl.Cl.O (relative stereo) [Y-27632, (R)-(+)-trans-(4-pyridyl)-4-(1-aminoethyl)-cyclohexanecarboxamide 2 hydrochloride 1 hydrate]",therapeutic result: corneal transparency (slit-lamp microscope) and corneal thickness,"[1]; 2.0×10^5 cultured human corneal endothelial cells into anterior chamber, with or without Y-27632 100 μmol/l",further improved
same,"therapeutic result: immunostaining of phalloidin, Na+/K+-ATPase and ZO-1 of extracted corneas","[1]; 2.5 months after introduction, cells alone or cells + ROCK inhibitor",further improved
"C[S+]([O-])c1ccc(-c2nc(-c3ccc(F)cc3)c(-c3ccncc3)[nH]2)cc1 (centres unmarked) [SB203580, 4-[4-(4-fluorophenyl)-2-(4-methylsulfinylphenyl)-1H-imidazole-5-yl]pyridine]",corneal endothelium density,[2]; SB203580 1 μmol/l added to SB431542 1 μmol/l,increased
same,culture normalization,"[2]; SB203580 1 μmol/l in conjunction with SB431542 1 μmol/l, repeated subculturing",culture normalization was enhanced
"COc1cc2c(cc1OC)CN(C(=O)/C=C/c1c(-c3ccccc3)n(C)c3ncccc13)CC2 [Smad3 inhibitor, 6,7-dimethoxy-2-((2E)-3-(1-methyl-2-phenyl-1H-pyrrolo[2,3-b]pyridine-3-yl-prop-2-enoyl))-1,2,3,4-tetrahydroiso quinolone]",cell form (phase-contrast microscope),[3]; Smad3 inhibitor 0.3 mM vs normal culture medium,a layer of polygonal cells with high density were maintained
same,cell form (phase-contrast microscope),[3]; Smad3 inhibitor 3 mM vs normal culture medium,a layer of polygonal cells with high density were maintained
"TGF-β: transforming growth factor-β, R&D SYSTEMS catalog number 240-B, added to induce transformation",cell form of normal phenotype after exposure to exogenous TGF-β,"[4]; monkey CEC cultured to sub-confluency, TGF-β1 0, 1, 10 ng/mL",transformed into a fibroblast-like cell
same,staining patterns of Na+/K+-ATPase and ZO-1 in plasma membranes,[4]; monkey CEC normal phenotype exposed to TGF-β,completely lost
same,expression of Na+/K+-ATPase and ZO-1 at the protein level (Western blot),[5],significantly decreased
same,phosphorylation of Smad2 (Western blot),[6],greatly increased in the concentration dependent form
B1,cell form (phalloidin staining and phase-contrast microscope),"[7]; HCEC subcultured in conditioned culture medium with BMP-7 100 ng/ml, control transformed, multi-layered",the form of a layer of polygonal cells was maintained
same,cell form and actine cytoskeleton distribution (phalloidin staining),[7]; [10],"allowed for a normal hexagonal cell form, and allowed for cytoskeleton distribution on the cell surface of actine"
same,elongated cell form of fibroblast phenotype (phase-contrast),"[7]; fibroblast-like HCEC, BMP-7 10 to 1,000 ng/ml, concentration-dependent manner",converted into a polygonal cell form
same,maintaining CEC in polygonal form and contact inhibition phenotype with positive expression of function-associated marker,"[8]; HCEC, BMP-7 10 ng/ml",tendency was seen
same,maintaining CEC in polygonal form and contact inhibition phenotype with positive expression of function-associated marker,"[8]; HCEC, BMP-7 100 ng/ml",tendency increased
same,maintaining CEC in polygonal form and contact inhibition phenotype with positive expression of function-associated marker,"[8]; HCEC, BMP-7 1,000 ng/ml",tendency was more significant
same,percentage of Na+/K+-ATPase positive cell,[8]; [11],significantly increased
same,percentage of ZO-1 positive cell,[8]; [11],significantly increased
same,intracellular localization of Na+/K+-ATPase and ZO-1,[8]; [10],maintained the intracellular localization of Na^+/K^+-ATPase and ZO-1 in a cell membrane
same,harmful effects with regard to the forms or functions,[9],"not seen any clear, harmful effects"
